In ChEMBL document CHEMBL3638723, “Isoxazolo-pyridine derivatives” (2014):
pKi: −log10 of the molar value.

Target: T1, Gamma-aminobutyric acid receptor subunit alpha-5 (Homo sapiens, UniProt P31644)
T1 sequence (P31644 whole entry): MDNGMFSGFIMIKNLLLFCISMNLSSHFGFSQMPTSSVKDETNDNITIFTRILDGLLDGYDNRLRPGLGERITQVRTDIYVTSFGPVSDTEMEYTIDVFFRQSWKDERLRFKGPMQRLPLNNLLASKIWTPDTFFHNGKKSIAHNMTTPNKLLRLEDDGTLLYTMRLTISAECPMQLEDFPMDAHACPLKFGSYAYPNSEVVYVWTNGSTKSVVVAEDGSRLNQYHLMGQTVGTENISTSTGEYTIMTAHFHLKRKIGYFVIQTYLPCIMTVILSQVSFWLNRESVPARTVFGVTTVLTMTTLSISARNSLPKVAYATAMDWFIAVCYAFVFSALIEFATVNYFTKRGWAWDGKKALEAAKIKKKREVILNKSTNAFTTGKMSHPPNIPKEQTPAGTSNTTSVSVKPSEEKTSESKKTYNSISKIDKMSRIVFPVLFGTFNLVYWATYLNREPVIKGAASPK
Assay: Radioligand Binding Assay: Radioligand binding assays were carried out in a volume of […] (96-well plates) which contained […] of cell memebranes, [3H]flumazenil at a concentration of 1 nM for α1, α2, α3 subunits and 0.5 nM for α5 subunits and the test compound in the range of 10-10−3x10−6 M. Nonspecific binding was defined by 10−5 M diazepam and typically represented less than 5% of the total binding. Assays were incubated to equilibrium for 1 hour at 4 C. and harvested onto GF/C uni-filters (Packard) by filtration using a Packard harvester and washing with ice-cold wash buffer (50 mM Tris; pH 7.5). After drying, filter-retained radioactivity was detected by liquid scintillation counting.

pKi | SMILES
7.84 | Cc1onc(-c2ccccn2)c1COc1ccc(C(=O)N2CCOCC2)cn1
8.89 | Cc1onc(-c2ccccc2)c1COc1ccc(C(=O)NC(C)C)cn1
7.82 | Cc1onc(-c2ccccc2)c1COc1ccc(C(=O)N2CC3(COC3)C2)cn1
9.40 | Cc1onc(-c2ccc(Cl)cn2)c1COc1ccc(C(=O)N2CCSCC2)cn1
8.27 | Cc1onc(-c2ccc(Cl)cc2)c1COc1ccc(C(=O)N2CCOCC2)cn1
7.52 | Cc1onc(-c2ccccc2)c1COc1ccc(C(=O)N2CCn3cnnc3C2)cn1
